Targets include Cytochrome P450 3A4 (Homo sapiens, UniProt P08684); Cytochrome P450 2C9 (Homo sapiens, UniProt P11712); Cytochrome P450 2D6 (Homo sapiens, UniProt P10635); Insulin receptor (Homo sapiens, UniProt P06213).
Assay [1] concerns the target T1, Mitogen-activated protein kinase kinase kinase 11 (Homo sapiens, UniProt Q16584).
Description: Inhibition of MLK3 (unknown origin) after 20 mins by scintillation counting analysis in presence of [33P]-ATP
In assay [2] the target is Mitogen-activated protein kinase kinase kinase 11 (Mus musculus, UniProt Q80XI6).
Assay [3] has as its target T2, Leucine-rich repeat serine/threonine-protein kinase 2 (Homo sapiens, UniProt Q5S007).
Description: Inhibition of human wild type LRRK2 by qPCR analysis
Assay [4] concerns the target Receptor-type tyrosine-protein kinase FLT3 (Homo sapiens) (UniProt P36888). Kind of assay: Inhibition of wild type human FLT3 at 1 umol by high throughput ATP-[33P] radiolabeled assay relative to control.
The target in assay [5] is Inhibitor of nuclear factor kappa-B kinase subunit alpha (Homo sapiens, UniProt O15111).
Description: Inhibition of wild type human IKKa by high throughput ATP-[33P] radiolabeled assay
Assay [6] deals with T3, Receptor-type tyrosine-protein kinase FLT3 (Homo sapiens, UniProt P36888).
T3 sequence (P36888 whole entry): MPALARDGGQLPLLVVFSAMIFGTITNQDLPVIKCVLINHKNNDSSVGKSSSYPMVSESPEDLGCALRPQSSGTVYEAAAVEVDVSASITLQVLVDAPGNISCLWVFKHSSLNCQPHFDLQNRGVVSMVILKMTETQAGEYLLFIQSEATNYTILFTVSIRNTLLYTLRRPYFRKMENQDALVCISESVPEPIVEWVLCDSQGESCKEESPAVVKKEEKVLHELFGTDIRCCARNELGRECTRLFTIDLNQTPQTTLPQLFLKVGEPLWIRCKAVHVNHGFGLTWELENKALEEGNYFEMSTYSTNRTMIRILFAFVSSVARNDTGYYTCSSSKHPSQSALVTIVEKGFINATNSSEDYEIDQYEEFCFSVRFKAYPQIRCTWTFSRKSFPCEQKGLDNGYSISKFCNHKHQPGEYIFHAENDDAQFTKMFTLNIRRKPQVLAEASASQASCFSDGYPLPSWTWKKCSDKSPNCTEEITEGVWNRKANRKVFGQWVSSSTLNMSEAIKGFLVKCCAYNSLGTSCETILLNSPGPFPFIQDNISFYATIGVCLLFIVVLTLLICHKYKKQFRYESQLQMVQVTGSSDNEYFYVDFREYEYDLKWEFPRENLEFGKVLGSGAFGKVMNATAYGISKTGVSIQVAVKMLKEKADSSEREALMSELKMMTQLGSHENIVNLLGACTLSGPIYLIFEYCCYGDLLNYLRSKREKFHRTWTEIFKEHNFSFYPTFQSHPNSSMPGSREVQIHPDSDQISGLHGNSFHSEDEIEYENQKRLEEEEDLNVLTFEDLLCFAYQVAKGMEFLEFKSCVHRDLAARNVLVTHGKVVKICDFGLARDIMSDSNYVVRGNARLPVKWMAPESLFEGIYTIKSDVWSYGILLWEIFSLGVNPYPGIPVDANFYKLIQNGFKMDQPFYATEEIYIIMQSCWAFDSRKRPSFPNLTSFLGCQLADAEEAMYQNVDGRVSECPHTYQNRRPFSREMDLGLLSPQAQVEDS
Description: Inhibition of wild type human FLT3 by high throughput ATP-[33P] radiolabeled assay

Assay [7] has as its target Inhibitor of nuclear factor kappa-B kinase subunit beta (Homo sapiens, UniProt O14920).
Description: Inhibition of wild type human IKKb by high throughput ATP-[33P] radiolabeled assay
The target in assay [8] is T3, Receptor-type tyrosine-protein kinase FLT3. Description: cell-based.
Description: Inhibition of FLT3-L-stimulated wild type full length human FLT3 autophosphorylation expressed in MEF preincubated for 90 mins followed by FLT3-L stimulation measured after 5 mins by ELISA
In assay [9] the target is Tyrosine-protein kinase ABL1 (Homo sapiens, UniProt P00519, T315I).
Description: Inhibition of wild type human ABL1 T315I mutant by high throughput ATP-[33P] radiolabeled assay
The target of assay [10] is Cyclin-dependent kinase 2 (Homo sapiens, UniProt P24941).
Description: Inhibition of wild type human CDK2 by high throughput ATP-[33P] radiolabeled assay
In assay [11] the target is T1, Mitogen-activated protein kinase kinase kinase 11. This is another data set of the same source.
Description: Inhibition of MLK3 (unknown origin) after 20 mins in presence of [33P]-ATP
Assay [12] has as its target T4, Tyrosine-protein kinase ABL1 (Homo sapiens, UniProt P00519). Description: Inhibition of human ABL1 mutant at 1 uM by qPCR analysis.
For assay [13], the target named is 5'-AMP-activated protein kinase catalytic subunit alpha-2 (Homo sapiens) (UniProt P54646). Description: Inhibition of human wild type AMPKalpha2 at 1 uM by qPCR analysis relative to control. Background: Real-time PCR tracks product formation cycle by cycle.
The test system of assay [14] is Leucine-rich repeat serine/threonine-protein kinase 2 (Homo sapiens), Q5S007 [G2019S]. Kind of assay: Inhibition of human LRRK2 G2019S mutant at 1 uM by qPCR analysis relative to control.
The target in assay [15] is Aurora kinase C (Homo sapiens) (UniProt Q9UQB9). Kind of assay: Inhibition of human wild type Aurora kinase C at 1 uM by qPCR analysis relative to control.
Assay [16] concerns the target Receptor-type tyrosine-protein kinase FLT3 (Homo sapiens) (UniProt P36888). Kind of assay: Inhibition of human wild type FLT3 at 1 uM by qPCR analysis relative to control.
Assay [17] concerns the target T5, Mitogen-activated protein kinase kinase kinase 9 (Homo sapiens, UniProt P80192). Kind of assay: Inhibition of human wild type MLK1 at 1 uM by qPCR analysis relative to control.
Assay [18] has as its target Serine/threonine-protein kinase BRSK2 (Homo sapiens) (UniProt Q8IWQ3). Description: Inhibition of human wild type BRSK2 at 1 uM by qPCR analysis relative to control.
The target of assay [19] is Calcium/calmodulin-dependent protein kinase type 1D (Homo sapiens) (UniProt Q8IU85). Kind of assay: Inhibition of human wild type CAMK1D at 1 uM by qPCR analysis relative to control.
For assay [20], the target named is Ribosomal protein S6 kinase alpha-6 (Homo sapiens) (UniProt Q9UK32). Description: Inhibition of human wild type RSK4 at 1 uM by qPCR analysis.
Assay [21] has as its target T4, Tyrosine-protein kinase ABL1. Description: Inhibition of human wild type ABL1 at 1 uM by qPCR analysis relative to control.
Assay [22] addresses T2, Leucine-rich repeat serine/threonine-protein kinase 2. Kind of assay: Inhibition of human wild type LRRK2 at 1 uM by qPCR analysis relative to control.
The target of assay [23] is Calcium/calmodulin-dependent protein kinase type II subunit delta (Homo sapiens) (UniProt Q13557). Kind of assay: Inhibition of human wild type CAMK2D at 1 uM by qPCR analysis relative to control.
For assay [24], the target named is TRAF2 and NCK-interacting protein kinase (Homo sapiens) (UniProt Q9UKE5). Description: Binding affinity to human wild type TNIK at 1 uM by qPCR analysis.
The target of assay [25] is T5, Mitogen-activated protein kinase kinase kinase 9.
Description: Inhibition of MLK1 (unknown origin) after 20 mins in presence of [33P]-ATP
Assay [26] addresses Aurora kinase A (Homo sapiens) (UniProt O14965). Kind of assay: Inhibition of human wild type Aurora kinase A at 1 uM by qPCR analysis relative to control.
Assay [27] deals with Mitogen-activated protein kinase kinase kinase 10 (Homo sapiens, UniProt Q02779).
Description: Inhibition of MLK2 (unknown origin) after 20 mins in presence of [33P]-ATP
Assay [28] has as its target Mitogen-activated protein kinase kinase kinase kinase 4 (Homo sapiens) (UniProt O95819). Kind of assay: Binding affinity to human wild type MAP4K4 at 1 uM by qPCR analysis.
Assay [29] concerns the target Ribosomal protein S6 kinase alpha-1 (Homo sapiens) (UniProt Q15418). Description: Inhibition of human wild type RSK1 at 1 uM by qPCR analysis.
For assay [30], the target named is Mast/stem cell growth factor receptor Kit (Homo sapiens) (UniProt P10721). Kind of assay: Inhibition of human wild type KIT at 1 uM by qPCR analysis relative to control.
Assay [31] deals with Calcium/calmodulin-dependent protein kinase type II subunit alpha (Homo sapiens) (UniProt Q9UQM7). Kind of assay: Inhibition of human wild type CAMK2A at 1 uM by qPCR analysis relative to control.

pIC50: −log10 of the molar value. The source made the active and inactive calls. No cut-off for these calls is given here.

Chain of Cytochrome P450 2D6 (P10635 whole entry): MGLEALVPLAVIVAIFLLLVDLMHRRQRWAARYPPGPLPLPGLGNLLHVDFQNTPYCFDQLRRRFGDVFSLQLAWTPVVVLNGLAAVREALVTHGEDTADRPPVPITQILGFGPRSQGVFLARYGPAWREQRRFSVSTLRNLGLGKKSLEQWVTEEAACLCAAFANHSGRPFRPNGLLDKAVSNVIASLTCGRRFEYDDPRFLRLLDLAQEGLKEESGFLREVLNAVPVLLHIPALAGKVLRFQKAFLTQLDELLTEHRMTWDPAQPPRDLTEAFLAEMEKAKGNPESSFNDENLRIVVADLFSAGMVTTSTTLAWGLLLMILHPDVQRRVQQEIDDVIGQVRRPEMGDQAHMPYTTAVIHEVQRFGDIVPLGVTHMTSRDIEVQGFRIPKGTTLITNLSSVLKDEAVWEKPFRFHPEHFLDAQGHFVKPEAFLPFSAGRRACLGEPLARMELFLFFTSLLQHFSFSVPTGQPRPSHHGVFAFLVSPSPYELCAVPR
Chain of Cytochrome P450 2C9 (P11712 whole entry): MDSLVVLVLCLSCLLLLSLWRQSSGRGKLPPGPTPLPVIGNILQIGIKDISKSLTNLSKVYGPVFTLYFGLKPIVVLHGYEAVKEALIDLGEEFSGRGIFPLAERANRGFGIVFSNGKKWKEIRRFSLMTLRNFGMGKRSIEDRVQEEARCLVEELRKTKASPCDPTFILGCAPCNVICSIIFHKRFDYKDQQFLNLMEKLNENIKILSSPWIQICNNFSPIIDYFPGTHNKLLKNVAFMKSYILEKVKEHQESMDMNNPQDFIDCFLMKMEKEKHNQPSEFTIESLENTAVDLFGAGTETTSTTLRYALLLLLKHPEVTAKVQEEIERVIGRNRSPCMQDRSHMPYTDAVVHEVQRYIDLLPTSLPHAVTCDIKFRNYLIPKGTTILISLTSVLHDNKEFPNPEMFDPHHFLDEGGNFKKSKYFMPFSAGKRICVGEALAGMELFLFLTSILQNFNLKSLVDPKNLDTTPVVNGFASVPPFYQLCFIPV
Chain of Mitogen-activated protein kinase kinase kinase 11 (Mus musculus, UniProt Q80XI6) (Q80XI6 whole entry): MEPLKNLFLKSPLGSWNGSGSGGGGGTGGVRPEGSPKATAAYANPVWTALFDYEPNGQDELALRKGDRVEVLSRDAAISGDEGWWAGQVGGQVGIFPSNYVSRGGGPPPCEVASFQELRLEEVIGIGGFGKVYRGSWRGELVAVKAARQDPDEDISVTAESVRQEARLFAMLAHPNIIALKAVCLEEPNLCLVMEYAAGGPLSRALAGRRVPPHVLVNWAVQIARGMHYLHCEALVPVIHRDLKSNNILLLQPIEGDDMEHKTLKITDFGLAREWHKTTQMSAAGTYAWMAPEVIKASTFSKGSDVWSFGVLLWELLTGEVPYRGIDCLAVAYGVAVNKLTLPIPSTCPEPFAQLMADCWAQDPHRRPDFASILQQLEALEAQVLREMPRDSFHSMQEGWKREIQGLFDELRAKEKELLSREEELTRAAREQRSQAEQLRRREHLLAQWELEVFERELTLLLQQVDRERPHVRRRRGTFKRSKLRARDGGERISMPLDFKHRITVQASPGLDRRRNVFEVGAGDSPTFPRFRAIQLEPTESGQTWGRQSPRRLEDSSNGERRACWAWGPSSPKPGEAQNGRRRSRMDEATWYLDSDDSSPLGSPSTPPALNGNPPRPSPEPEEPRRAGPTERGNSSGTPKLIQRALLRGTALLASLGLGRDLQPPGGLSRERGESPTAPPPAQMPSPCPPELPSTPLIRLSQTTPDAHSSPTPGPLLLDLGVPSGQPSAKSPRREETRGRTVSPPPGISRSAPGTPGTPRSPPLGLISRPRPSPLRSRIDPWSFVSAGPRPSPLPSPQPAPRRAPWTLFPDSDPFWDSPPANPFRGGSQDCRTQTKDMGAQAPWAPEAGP
Chain of Cytochrome P450 3A4 (P08684 whole entry): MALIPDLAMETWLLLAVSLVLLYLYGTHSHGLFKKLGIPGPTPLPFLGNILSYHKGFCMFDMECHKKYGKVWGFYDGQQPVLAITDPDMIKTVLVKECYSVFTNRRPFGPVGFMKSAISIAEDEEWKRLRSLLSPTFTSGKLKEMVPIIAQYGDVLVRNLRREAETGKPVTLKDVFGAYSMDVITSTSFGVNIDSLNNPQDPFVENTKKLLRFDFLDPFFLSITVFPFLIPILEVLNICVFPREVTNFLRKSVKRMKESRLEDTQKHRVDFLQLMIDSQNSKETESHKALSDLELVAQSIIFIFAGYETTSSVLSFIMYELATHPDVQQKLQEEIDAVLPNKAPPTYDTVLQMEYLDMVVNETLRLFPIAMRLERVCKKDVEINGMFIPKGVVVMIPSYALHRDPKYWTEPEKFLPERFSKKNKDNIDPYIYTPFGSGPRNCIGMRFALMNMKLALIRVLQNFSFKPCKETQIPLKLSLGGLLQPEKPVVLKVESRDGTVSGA
T2 sequence (Q5S007 whole entry): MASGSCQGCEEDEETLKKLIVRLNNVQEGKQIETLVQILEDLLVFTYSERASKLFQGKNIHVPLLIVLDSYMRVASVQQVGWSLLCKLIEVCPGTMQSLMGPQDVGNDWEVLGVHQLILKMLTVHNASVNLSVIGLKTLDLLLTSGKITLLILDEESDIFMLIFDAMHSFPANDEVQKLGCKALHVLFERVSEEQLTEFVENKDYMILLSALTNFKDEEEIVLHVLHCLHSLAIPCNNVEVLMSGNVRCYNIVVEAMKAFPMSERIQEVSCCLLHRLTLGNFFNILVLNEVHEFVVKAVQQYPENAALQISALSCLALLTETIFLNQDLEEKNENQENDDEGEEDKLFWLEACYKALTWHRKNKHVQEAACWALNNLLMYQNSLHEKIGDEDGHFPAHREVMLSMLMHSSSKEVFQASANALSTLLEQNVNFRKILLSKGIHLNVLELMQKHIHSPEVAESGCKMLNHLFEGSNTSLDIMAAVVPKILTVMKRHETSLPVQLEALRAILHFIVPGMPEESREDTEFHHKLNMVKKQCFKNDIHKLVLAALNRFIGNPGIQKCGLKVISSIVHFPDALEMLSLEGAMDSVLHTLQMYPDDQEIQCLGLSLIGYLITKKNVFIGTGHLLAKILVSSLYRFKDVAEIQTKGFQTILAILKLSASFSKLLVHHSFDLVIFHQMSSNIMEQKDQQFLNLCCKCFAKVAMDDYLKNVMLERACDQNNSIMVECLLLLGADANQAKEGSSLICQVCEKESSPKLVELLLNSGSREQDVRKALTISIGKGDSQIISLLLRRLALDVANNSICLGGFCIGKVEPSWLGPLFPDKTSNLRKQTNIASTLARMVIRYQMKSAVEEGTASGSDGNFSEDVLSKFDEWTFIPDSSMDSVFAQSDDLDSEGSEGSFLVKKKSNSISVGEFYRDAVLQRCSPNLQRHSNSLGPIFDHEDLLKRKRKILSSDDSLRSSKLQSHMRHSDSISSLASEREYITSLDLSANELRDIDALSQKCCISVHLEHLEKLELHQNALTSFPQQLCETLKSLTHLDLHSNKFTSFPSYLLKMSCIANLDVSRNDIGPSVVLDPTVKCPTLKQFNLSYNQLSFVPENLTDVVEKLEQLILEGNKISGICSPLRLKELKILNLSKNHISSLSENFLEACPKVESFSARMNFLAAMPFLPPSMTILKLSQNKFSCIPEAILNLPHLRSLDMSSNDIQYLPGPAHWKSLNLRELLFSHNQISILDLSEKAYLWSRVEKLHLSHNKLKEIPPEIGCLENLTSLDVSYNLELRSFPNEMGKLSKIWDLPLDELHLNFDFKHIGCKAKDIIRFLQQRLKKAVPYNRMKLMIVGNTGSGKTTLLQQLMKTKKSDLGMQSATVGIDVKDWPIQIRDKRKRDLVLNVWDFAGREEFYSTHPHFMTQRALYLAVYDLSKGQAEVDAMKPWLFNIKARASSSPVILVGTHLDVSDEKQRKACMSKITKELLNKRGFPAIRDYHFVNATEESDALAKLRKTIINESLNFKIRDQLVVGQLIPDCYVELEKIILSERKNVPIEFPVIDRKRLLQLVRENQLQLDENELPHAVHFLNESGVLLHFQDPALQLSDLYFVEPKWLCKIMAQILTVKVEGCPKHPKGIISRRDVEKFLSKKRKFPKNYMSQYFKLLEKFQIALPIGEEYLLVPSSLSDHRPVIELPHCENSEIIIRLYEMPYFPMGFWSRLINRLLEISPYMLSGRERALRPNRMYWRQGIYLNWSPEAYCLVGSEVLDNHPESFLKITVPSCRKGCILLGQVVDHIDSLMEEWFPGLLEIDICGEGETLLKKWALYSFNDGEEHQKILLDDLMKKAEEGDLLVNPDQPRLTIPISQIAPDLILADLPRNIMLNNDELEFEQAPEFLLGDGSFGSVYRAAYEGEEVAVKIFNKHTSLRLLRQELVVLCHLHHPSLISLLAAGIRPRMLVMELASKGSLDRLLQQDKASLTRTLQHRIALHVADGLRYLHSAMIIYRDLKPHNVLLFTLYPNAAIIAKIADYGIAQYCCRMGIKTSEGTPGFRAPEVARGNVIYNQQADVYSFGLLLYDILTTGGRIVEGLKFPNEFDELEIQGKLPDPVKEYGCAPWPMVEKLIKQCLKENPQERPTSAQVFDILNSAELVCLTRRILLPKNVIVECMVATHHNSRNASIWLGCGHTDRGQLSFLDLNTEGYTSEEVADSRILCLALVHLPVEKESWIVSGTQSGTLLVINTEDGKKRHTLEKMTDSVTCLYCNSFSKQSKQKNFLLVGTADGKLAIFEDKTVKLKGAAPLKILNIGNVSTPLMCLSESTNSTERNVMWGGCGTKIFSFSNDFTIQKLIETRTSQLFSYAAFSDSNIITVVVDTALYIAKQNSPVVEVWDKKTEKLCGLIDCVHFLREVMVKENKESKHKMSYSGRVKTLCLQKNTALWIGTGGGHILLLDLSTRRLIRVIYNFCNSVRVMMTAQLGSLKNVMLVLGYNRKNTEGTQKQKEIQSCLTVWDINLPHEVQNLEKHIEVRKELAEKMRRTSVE
Chain of Leucine-rich repeat serine/threonine-protein kinase 2 (Homo sapiens), Q5S007 [G2019S] (Q5S007 whole entry G2019S): as the sequence (Q5S007 whole entry) above, with G2019S counted along it
Description for Cytochrome P450 2C9: Inhibition of CYP2C9 in human liver microsomes assessed as inhibition of midazolam metabolism by HPLC/MS analysis
Description for Cytochrome P450 2D6: Inhibition of CYP2D6 in human liver microsomes assessed as inhibition of diclofenac metabolism by HPLC/MS analysis
Description for Cytochrome P450 3A4: Inhibition of CYP3A4 in human liver microsomes assessed as inhibition of dextromethorphan metabolism by HPLC/MS analysis
Description for Insulin receptor: Inhibition of wild type human IR by high throughput ATP-[33P] radiolabeled assay

As usually defined, the pIC50 is −log10 of the IC50, conventionally taken in molar units. A lower pIC50 goes with a large IC50. With `COc1cc(-c2cnc3[nH]cc(-c4cnc(N)nc4)c3c2)cc(OC)c1OC`, the pIC50 on Cytochrome P450 3A4 is under 4.52; against Cytochrome P450 2C9, under 4.52; in [1] it was 8.05; at Cytochrome P450 2D6, under 4.52; in assay [2], 6.00.
By inhibition is commonly meant the drop in the measured response relative to a control, in per cent. Turning to `Nc1ccc(-c2cnc3[nH]cc(-c4ccc5[nH]ccc5c4)c3c2)cn1`, the negative-log IC50 (pIC50) on Cytochrome P450 3A4 was 5.38; against Cytochrome P450 2C9 it was 4.86; in assay [1], 7.72; in assay [3] it was 7.34; against Cytochrome P450 2D6, 5.43; in assay [2] it was 6.37. The inhibition in [4] is 98%.
Take `CN1CCN(Cc2ccc(-c3cnc4[nH]cc(-c5cnc6[nH]ccc6c5)c4c3)cc2)CC1`: the pIC50 is 6.48 in assay [5]; 8.02 in [6]; 6.54 in [7]; 6.14 in [8]; 6.55 in assay [9]; 5.89 against Insulin receptor. For the same compound, the negative-log IC50 (pIC50) in [1] is 7.68; in assay [10], 6.14.
As to `COc1cc(-c2cnc3[nH]cc(-c4ccc(N)nc4)c3c2)cc(OC)c1OC`, the pIC50 is under 4.52 at Cytochrome P450 3A4; under 4.52 at Cytochrome P450 2C9; 8.15 in assay [1]; 8.30 in assay [3]; under 4.52 at Cytochrome P450 2D6; 6.92 in assay [2]. The compound also gave an inhibition in assay [4] of 99%.
Take `Nc1ncc(-c2cnc3[nH]cc(-c4ccc5[nH]ccc5c4)c3c2)cn1`: the negative logarithm of the IC50 (pIC50) was 4.66 against Cytochrome P450 3A4; under 4.52 against Cytochrome P450 2C9; 7.11 in assay [1]; 4.88 against Cytochrome P450 2D6; 6.29 in [2]. In assay [4], this compound had an inhibition of 97%.
For `COc1cc(-c2cnc3[nH]cc(-c4ccc5[nH]ccc5c4)c3c2)cc(OC)c1OC`, the pIC50 was under 4.52 against Cytochrome P450 3A4; under 4.52 against Cytochrome P450 2C9; 8.52 in [1]; 7.46 in assay [3]; under 4.52 at Cytochrome P450 2D6; 5.57 in assay [2]. This compound also yielded an inhibition in [4] of 98%.
As to `CCSCc1ccc2c(c1)c1c3c(c4c5cc(CSCC)ccc5n5c4c1n2[C@H]1C[C@](O)(C(=O)OC)[C@]5(C)O1)CNC3=O` [CEP-1347], the negative-log IC50 (pIC50) in assay [11] is 8.22; in assay [25], over 9.00; in assay [27], 8.70. Moreover, the inhibition result in [12] and in assay [21] was “inactive” throughout. Further, the inhibition in [13] is 98%; in assay [14] it was 98%; in [15], over 99%; in [16], over 99%; in assay [17], over 99%; in assay [18], 94%. Further, the inhibition in assay [19] was over 99%; in [22], 100%; in assay [23], 87%; in assay [26], over 99%; in assay [30] it was over 99%; in assay [31], 84%. In addition, the inhibition result in assay [20], in assay [24], in [28] and in assay [29] was “Active” each time.
`COc1cc(-c2cnc3[nH]c(=O)n(-c4ccc5[nH]ccc5c4)c3n2)cc(OC)c1OC`: the negative logarithm of the IC50 (pIC50) in assay [3] was 5.53. The same compound returned an inhibition in [4] of 88%.

The record behind these values is ChEMBL document CHEMBL2434948, “Discovery, synthesis, and characterization of an orally bioavailable, brain penetrant inhibitor of mixed lineage kinase 3” (J Med Chem, 2013).
